31 compounds from ChEMBL document CHEMBL1142196, “Leishmania donovani polyamine biosynthetic enzyme overproducers as tools to investigate the mode of action of cytotoxic polyamine analogs” (Antimicrob Agents Chemother, 2007) can be followed below.

Calls of active or inactive are those of the source. The rule behind the calls is not given here.

For assay [1], the system named is Leishmania donovani. Description: Growth of Leishmania donovani DI700 promastigotes at 100 uM relative to control.
Assay [2] concerns Leishmania donovani. Description: Antiproliferative activity against Leishmania donovani DI700 promastigotes. Type of assay: functional, organism-based.
Assay [3] has as its system Leishmania donovani. Description: Antiproliferative activity against Leishmania donovani DI700 promastigotes in presence of 100 uM spermidine. It counts as functional, organism-based.
The subject of assay [4] is Leishmania donovani. As to the kind of experiment: Antiproliferative activity against Leishmania donovani DI700 promastigotes overproducing ADOMETDC enzyme. Type of assay: functional, organism-based.
In assay [5] the test system is Leishmania donovani. As to the kind of experiment: Antiproliferative activity against Leishmania donovani DI700 promastigotes overproducing ODC enzyme. It counts as functional, organism-based.
For assay [6], the system named is Leishmania donovani. Description: Antiproliferative activity against Leishmania donovani DI700 promastigotes in presence of 100 uM putrescine. Type of assay: functional, organism-based.
Assay [7] deals with Leishmania donovani. As to the kind of experiment: Antiproliferative activity against Leishmania donovani DI700 promastigotes overproducing SPDSYN enzyme. Type of assay: functional, organism-based.

In turn, `CCNCCCCNCCCCNCCCCNCCCCNC/C=C\CNCCCCNCCCCNCCCCNCCCCNCC` came in with a growth, % of control at 100 µM in the assay on Leishmania donovani [1] of 25.7%. For the same compound, the result in the assay with Leishmania donovani [2] was inactive.

The compound `CCNCCCCNC/C=C\CNCCCCNCCCCNCC` came in with a growth, % of control at 100 µM with Leishmania donovani [1] of 96.2%. In addition, the outcome in the assay with Leishmania donovani [2] was inactive.

Take `CCNCCCNCC1CC1CNCCCNCC` (stereo not given): the growth, % of control at 100 µM in the assay with Leishmania donovani [1] came out at 106%. For the same compound, the outcome in the assay with Leishmania donovani [2] was inactive.

Turning to `CC(/C=N/NC(=N)N)=N\NC(=N)N` [MITOGUAZONE], the EC50 (usually the midpoint of the concentration-response curve) worked out at 1800 µM in the assay with Leishmania donovani [3]; 1500 µM in the assay with Leishmania donovani [4]; 2200 µM with Leishmania donovani [5]; 2600 µM with Leishmania donovani [6]; 1800 µM in the assay with Leishmania donovani [2]; 1400 µM in the assay on Leishmania donovani [7].

In the assay with Leishmania donovani [1], `CCNCCCCNCCCCNCCCCNCCCCNCCCCNCCCCNCCCCNCCCCNCCCCN(CC)C(=O)CCC1=C(C)c2cc3[nH]c(cc4nc(cc5[nH]c(cc1n2)c(CCC(=O)N(CC)CCCCNCCCCNCCCCNCCCCNCCCCNCCCCNCCCCNCCCCNCCCCNCC)c5C)C(CC)=C4C)c(CC)c3C` yielded a growth, % of control at 100 µM of 2.2%. This compound also yielded an EC50 in the assay with Leishmania donovani [2] of 0.5 µM.

On to `CCNCCCCNCCCCNCCCCNCCCCNCCCCNCCCCNCCCCNCCCCNCCCCNCC`, for which the growth, % of control at 100 µM in the assay on Leishmania donovani [1] worked out at 62.6%. Further, the values for the concentration giving a half-maximal response (EC50) with Leishmania donovani [5], in the assay with Leishmania donovani [2] and in the assay with Leishmania donovani [7] were 9 µM, 9 µM and 50 µM, respectively.

With `NCCC[C@](N)(C(=O)O)C(F)F` [EFLORNITHINE, (S)-], the EC50 in the assay with Leishmania donovani [3] was 130 µM; in the assay with Leishmania donovani [4], 30 µM; in the assay on Leishmania donovani [5], over 1000 µM; with Leishmania donovani [6], over 1000 µM; in the assay on Leishmania donovani [2], 40 µM; in the assay on Leishmania donovani [7], 40 µM.

For `CCNCCCCNCCCCNCCCCNCCCCNCCCCNCCCCNC/C=C/CNCCCCNCCCCNCCCCNCCCCNCCCCNCCCCNCC`, the growth, % of control at 100 µM in the assay on Leishmania donovani [1] stood at 7.9%. Also, in the assay with Leishmania donovani [2], the EC50 came to 6.5 µM.

Consider `CCNC/C=C\CNCCCCNCCCCNCCCCNCC`, for which, in the assay with Leishmania donovani [1], the growth, % of control at 100 µM came out at 83.2%. Besides, in the assay with Leishmania donovani [2], the outcome was inactive.

Consider `CCNCCCCNCCCCNCCCCNC/C=C\CNCCCCNCCCCNCCCCNCC`, for which the growth, % of control at 100 µM in the assay on Leishmania donovani [1] stood at 97.2%. The result in the assay with Leishmania donovani [2] was inactive.

In the assay on Leishmania donovani [1], `CCNCCCCNCCCCNCCCCNCCCCNCC1CC1CNCCCCNCCCCNCCCCNCCCCNCC` (stereo not given) came in with a growth, % of control at 100 µM of 73%. For the same compound, the outcome in the assay on Leishmania donovani [2] was inactive.

The compound `CCNCCCCNCC1CC1CNCCCCNCC1CC1CNCCCCNCC` (stereo not given) displayed a growth, % of control at 100 µM with Leishmania donovani [1] of 118%. In the assay with Leishmania donovani [2], the result was inactive.

For the compound `CN(C/C=C\CN)C[C@H]1O[C@@H](n2cnc3c(N)ncnc32)[C@H](O)[C@@H]1O`, the EC50 in the assay with Leishmania donovani [3] is over 10000 µM; in the assay on Leishmania donovani [4] it was over 10000 µM; in the assay on Leishmania donovani [5], 2700 µM; in the assay on Leishmania donovani [6], 800 µM; in the assay with Leishmania donovani [2] it was 40 µM; in the assay with Leishmania donovani [7] it was 200 µM.

In the case of `CCCCN` [BUTYLAMINE], the EC50 was over 10000 µM in the assay on Leishmania donovani [3]; 200 µM in the assay with Leishmania donovani [4]; 2100 µM in the assay with Leishmania donovani [5]; 2000 µM in the assay with Leishmania donovani [6]; 400 µM with Leishmania donovani [2]; 3300 µM in the assay on Leishmania donovani [7].

Compound `CCCCCCCCCCCCCC1CCN(CCCNC(=O)CCC2=C(C)c3cc4[nH]c(cc5nc(cc6[nH]c(cc2n3)c(CCC(=O)NCCCN2CCCN(C)CCCCN(C)CCCN(C)C(CCCCCCCCCCCCC)CC2)c6C)C(CC)=C5C)c(CC)c4C)CCCN(C)CCCCN(C)CCCN1C` (stereo not given) had a growth, % of control at 100 µM with Leishmania donovani [1] of 1.7%. In addition, it took 50 µM to reach a half-maximal effect in the assay with Leishmania donovani [2] (EC50).

`N=C(N)c1ccc(/N=N/Nc2ccc(C(=N)N)cc2)cc1` [DIMINAZENE]: the EC50 was found to be 9.7 µM with Leishmania donovani [3]; 9.7 µM in the assay with Leishmania donovani [4]; 8.7 µM in the assay with Leishmania donovani [5]; 6.1 µM in the assay on Leishmania donovani [6]; 9.5 µM in the assay with Leishmania donovani [2]; 8 µM in the assay on Leishmania donovani [7].

In the case of `CCNCCCCNCC1CCC1CNCCCCNCC` (stereo not given), the growth, % of control at 100 µM in the assay with Leishmania donovani [1] is 92.8%. The outcome in the assay with Leishmania donovani [2] was inactive.

As for `CCNCCCCNCCCCNCCCCNCCCCNC/C=C/CNCCCCNCCCCNCCCCNCCCCNCC`, in the assay on Leishmania donovani [1], the growth, % of control at 100 µM stood at 62.4%. Further, the result in the assay on Leishmania donovani [2] was inactive.

In the case of `CCNCCCCNCCCCNCCCCNCCCCN(CC)CCCCNCCCCNCCCCNCCCCNCC`, the growth, % of control at 100 µM in the assay on Leishmania donovani [1] came to 102%. In addition, the result with Leishmania donovani [2] was inactive.

For `CCNCCCCNCC1CC1CNCCCCNCC` (stereo not given), in the assay on Leishmania donovani [1], the growth, % of control at 100 µM amounted to 81.4%. Also, the outcome in the assay with Leishmania donovani [2] was inactive.

`CCNC/C=C\CNCCCCNC/C=C\CNCC` displayed a growth, % of control at 100 µM in the assay with Leishmania donovani [1] of 128%. In the assay with Leishmania donovani [2], the outcome was inactive.

In the assay with Leishmania donovani [1], `CCNCCCCNCCCCNCCCCNCCCCNCCCCNCCCCNCCCCNCCCCNCCCCNCCCCNCCCCNCC` registered a growth, % of control at 100 µM of 8.4%. The EC50 with Leishmania donovani [5] came to 5.5 µM; in the assay on Leishmania donovani [2] it was 0.4 µM; with Leishmania donovani [7], 0.5 µM.

On to `CCNCCCCNCCCCNCCCCNC/C=C/CNCCCCNCCCCNCCCCNCC`, for which, in the assay on Leishmania donovani [1], the growth, % of control at 100 µM stood at 85.5%. Further, the result in the assay with Leishmania donovani [2] was inactive.

In the assay on Leishmania donovani [1], `CCNCCCCNCCCCNCCCCNCCCCNCCCCNC/C=C/CNCCCCNCCCCNCCCCNCCCCNCCCCNCC` had a growth, % of control at 100 µM of 7.5%. Besides, the result in the assay with Leishmania donovani [2] was inactive.

On to `CCNCCCCNCC1CC1CNCCCCN(CC)C(=O)CCC1=C(C)c2cc3[nH]c(cc4nc(cc5[nH]c(cc1n2)c(CCC(=O)N(CC)CCCCNCC1CC1CNCCCCNCC)c5C)C(CC)=C4C)c(CC)c3C` (stereo not given), for which the growth, % of control at 100 µM in the assay with Leishmania donovani [1] is 1.3%. The result in the assay with Leishmania donovani [2] was inactive.

In turn, `CCNCCCCNCCCCNCCCCNCCCCNCCCCNCCCCNCCCCNCCCCNCCCCN(CC)C(=O)CCC1=C(C)c2cc3[nH]c(cc4nc(cc5[nH]c(cc1n2)c(CCC(=O)N(CC)CCCCNCCCCNCCCCNCCCCNCCCCNCCCCNCCCCNCCCCNCCCCNCC)c5C)C(S(=O)(=O)O)=C4C)c(S(=O)(=O)O)c3C` displayed a growth, % of control at 100 µM with Leishmania donovani [1] of 1.1%. In addition, it took 0.7 µM to reach a half-maximal effect with Leishmania donovani [2] (EC50).

`N=C(N)c1ccc(OCCCCCOc2ccc(C(=N)N)cc2)cc1` [PENTAMIDINE]: the EC50 in the assay with Leishmania donovani [3] was 2 µM; with Leishmania donovani [4] it was 1.7 µM; in the assay on Leishmania donovani [5], 2.6 µM; in the assay on Leishmania donovani [6], 1.9 µM; with Leishmania donovani [2], 1.9 µM; in the assay with Leishmania donovani [7], 1.7 µM.

For the compound `CCCCCCCCCCCCCC1CCN(CCCN)CCCN(C)CCCCN(C)CCCCN1C` (stereo not given), the growth, % of control at 100 µM in the assay on Leishmania donovani [1] is 98.3%. The result with Leishmania donovani [2] was inactive.

In the case of `CCNCCCCNCCCCNCCCCNCCCCNCCCCNCCCCNCCCCNCC`, the growth, % of control at 100 µM with Leishmania donovani [1] amounted to 99.2%. Further, the outcome in the assay on Leishmania donovani [2] was inactive.

In turn, `CCNCCCCNCCCCNCCCCNCCCCNCCCCNCCCCNCCCCNCCCCNCCCCNCCCCNCCCCNCCCCNCCCCNCC` gave a growth, % of control at 100 µM with Leishmania donovani [1] of 8.9%. For the same compound, the EC50 in the assay on Leishmania donovani [2] is 9 µM.

For the compound `CCNC/C=C\CNC/C=C\CNC/C=C\CNCC`, in the assay with Leishmania donovani [1], the growth, % of control at 100 µM was determined as 104%. The outcome in the assay on Leishmania donovani [2] was inactive.
